{"source": "patent US11478496B2", "about": "“Treatments of prostate cancer” (THE FLORIDA INTERNATIONAL UNIVERSITY BOARD OF TRUSTEES, priority 2020, dated 2022)", "key": {"[1]": {"test_system": "BER reconstituted with purified Pol β, FEN1, and LIG I", "assay": "Secondary gel-based BER assay reconstituted with purified core BER enzymes", "type": "biochemical", "settings": "10 μM compound, THF substrate", "experimental": "The secondary screening assay was performed as described below in the “Materials and Methods” section. Lane 1 represents the substrate only. Lane 2 indicates the reaction mixture with 5 nM APE1. Lanes 3 and 4 correspond to the reaction mixture with 5 nM APE1, 10 nM pol β, 10 nM FEN1 and 20 nM LIG I in the absence and presence of dimethylsulfoxide (DMSO). Lanes 5 through 19 correspond to the reaction mixture with 5 nM APE1, 10 nM pol β, 10 nM FEN1 and 20 nM LIG I in the presence of indicated compounds. The experiments were repeated at least three times. A representative gel is illustrated.\nThe hit compounds were subject to secondary assays to determine their ability to reduce the BER capacity when reconstituted with purified core BER enzymes, as well as their inhibitory effects on individual BER enzymes including pol FEN1 and LIG I. The effect of hit compounds on BER capacity and BER enzymes was examined using a denaturing sequencing gel-based assay. 10 μM hit compounds were incubated with 10 nM pol β, 10 nM FEN1 and 20 nM LIG I in BER reaction buffer containing 50 mM Tris-HCl (pH 7.5), 50 mM KCl, 0.1 mM EDTA, 0.1 mg/ml bovine serum albumin, and 0.01% Nonidet P-40 in the presence of 5 mM Mg^2+ and 2 mM ATP. The compounds were initially preincubated with a BER enzyme at varying concentrations for 1 h with rotation. This was followed by the addition of 25 nM ^32P-labeled substrate containing an abasic site, which was precut with 25 or 50 nM APEI. The reaction mixture (20 μL) was incubated at 37° C. for 30 min, and the reaction was terminated by 50 mM EDTA. Substrates, products, and unrepaired BER intermediates were separated by 15% urea-denaturing sequencing gel and detected by a Pharos FX Plus PhosphorImager (Bio-Rad, Hercules, Calif.).\nAmong the 26 identified compounds, nine were DNA intercalators or inhibitors of human DNA topoisomerases and were excluded from further studies. Thus, […] FDA approved drugs were selected for further testing. To further confirm the inhibitory effects of the lead compounds on BER, the effects of the compounds on BER reactions reconstituted with purified BER core enzymes were initially determined."}, "LNCaP cells [2]": {"test_system": "LNCaP cells", "assay": "Cell Titer Glo cell viability assay, LNCaP", "type": "cell-based", "settings": "10 μM; androgen depleted conditions (CSS); 24 and 48 h", "experimental": "(§1) FIGS. 3A-3B show cellular toxicity of the lead compounds in androgen-dependent prostate cancer cell lines. (3A) LNCaP cells were plated in a 96-well plate at 1×10^4 cells/well in the presence of Fetal Bovine Serum (FBS) or Charcoal stripped Serum (CSS). Cells were allowed to attach overnight and were treated with either vehicle (DMSO) or 10 μM of indicated compound. At 24 and 48 h cellular viability was compared using the Cell Titer Glo Luminescent Cell Viability kit. (3B) LAPC4 cells were plated in a 96-well plate at a density of 1×10^4 cells/well in the presence of FBS or CSS. Cells were allowed to attach overnight and treated with 10 μM of indicated compound.\n(§2) Cell viability was determined using the Cell Titer Glo Cell Viability Assay (Promega, Madison, Wis.), as recommended by manufacturer. All experiments were performed in quadruplicate."}, "LAPC4 cells": {"test_system": "LAPC4 cells", "assay": "Cell Titer Glo cell viability assay, LAPC4", "type": "cell-based, human", "settings": "10 μM; androgen depleted conditions (CSS); 24 and 48 h", "experimental": "as §1, §2"}, "LNCaP cells [3]": {"test_system": "LNCaP cells", "assay": "MTT viability/toxicity assay, LNCaP", "type": "cell-based", "settings": "48 h", "experimental": "Cells were seeded in a 96 well plate at 1×10^4 cells/well and allowed to adhere overnight in the presence of FBS or CSS. The following day treatment was added to the wells and the plates were incubated for 24 h or 48 h. After incubation, 50 μL of MTT (2 mg/mL) was added to each well and incubated in the dark for 4 h. After incubation 150 μL of the media/MTT solution was removed and 100 μL of DMSO was added to each well and incubated for 15 min. Absorbance at 570 nm was measured using a ClarioStar Plate Reader (BMG LabTech, Ortenburg, Germany)."}, "LIG I": {"biological_target": "LIG I (Homo sapiens, UniProt P18858)", "sequence (P18858 whole entry)": "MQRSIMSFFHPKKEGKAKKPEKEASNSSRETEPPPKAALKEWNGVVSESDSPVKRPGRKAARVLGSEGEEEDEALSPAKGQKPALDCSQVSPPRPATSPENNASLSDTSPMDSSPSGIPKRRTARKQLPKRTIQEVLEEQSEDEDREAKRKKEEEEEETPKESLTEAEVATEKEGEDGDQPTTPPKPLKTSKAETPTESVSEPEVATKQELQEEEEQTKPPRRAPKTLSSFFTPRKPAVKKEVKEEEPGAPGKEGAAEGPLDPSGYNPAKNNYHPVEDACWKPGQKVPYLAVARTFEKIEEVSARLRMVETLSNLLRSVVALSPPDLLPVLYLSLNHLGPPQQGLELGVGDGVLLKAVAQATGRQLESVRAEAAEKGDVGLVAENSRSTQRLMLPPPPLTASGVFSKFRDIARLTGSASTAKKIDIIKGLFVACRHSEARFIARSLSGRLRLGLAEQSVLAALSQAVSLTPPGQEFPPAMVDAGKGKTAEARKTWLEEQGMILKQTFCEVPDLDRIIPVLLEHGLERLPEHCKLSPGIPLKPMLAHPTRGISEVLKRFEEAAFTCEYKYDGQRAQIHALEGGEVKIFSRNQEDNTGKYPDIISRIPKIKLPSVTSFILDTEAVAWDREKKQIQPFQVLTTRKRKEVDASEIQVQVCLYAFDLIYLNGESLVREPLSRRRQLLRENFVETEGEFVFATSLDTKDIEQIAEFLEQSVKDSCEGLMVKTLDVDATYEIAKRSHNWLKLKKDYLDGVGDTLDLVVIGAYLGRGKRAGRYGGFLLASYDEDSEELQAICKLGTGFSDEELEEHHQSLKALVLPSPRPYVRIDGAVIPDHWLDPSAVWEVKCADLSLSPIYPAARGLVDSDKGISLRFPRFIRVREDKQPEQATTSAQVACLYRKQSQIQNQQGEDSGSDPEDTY", "assay": "LIG I activity on nicked substrate", "type": "biochemical", "settings": "5 nM LIG I", "experimental": "(§3) Lane 1 represents the substrate only. Lanes 2 and 3 indicates the reaction mixture with 5 nM LIG I in the absence and presence of DMSO. […] The substrate was ^32P-labeled at the 5′-end of the upstream strand and is illustrated above the gel. The experiments were repeated at least three times. Representative gel is illustrated. Quantification of the results is shown below the gel. Two-way ANOVA with Tukey's multiple comparison posttests was used to determine statistically significant differences. * signifies p<0.05 compared to the control reaction with LIG I and DMSO. […] Lane 1 represents the substrate only. Lanes 2 and 3 indicates the reaction mixture with 5 nM pol β in the absence and presence of DMSO. […] The substrate was ^32P-labeled at the 5′-end of the upstream strand and is illustrated above the gel. The experiments were repeated at least three times. Quantification of the results are shown below the gel. Two-way ANOVA with Tukey's multiple comparison posttests was used to determine statistical significance. * signifies p<0.05 compared to the control reaction with pol β and DMSO.\n(§4) BER reactions were terminated by adding 2× stopping buffer containing 95% formamide and 10 mM EDTA. Reaction mixtures were then denatured at 95° C. for 5 min and separated by 15% urea-denaturing polyacrylamide gel electrophoresis. Substrates and products were detected and analyzed using a Pharos FX Plus PhosphorImager (Bio-Rad, Hercules, Calif.)."}, "pol β": {"biological_target": "pol β (Homo sapiens, UniProt P06746)", "assay": "Pol β DNA synthesis on 1-nt gap substrate", "type": "biochemical", "experimental": "as §3, §4"}, "FEN1": {"biological_target": "FEN1 (Homo sapiens, UniProt P39748)", "sequence (P39748 whole entry)": "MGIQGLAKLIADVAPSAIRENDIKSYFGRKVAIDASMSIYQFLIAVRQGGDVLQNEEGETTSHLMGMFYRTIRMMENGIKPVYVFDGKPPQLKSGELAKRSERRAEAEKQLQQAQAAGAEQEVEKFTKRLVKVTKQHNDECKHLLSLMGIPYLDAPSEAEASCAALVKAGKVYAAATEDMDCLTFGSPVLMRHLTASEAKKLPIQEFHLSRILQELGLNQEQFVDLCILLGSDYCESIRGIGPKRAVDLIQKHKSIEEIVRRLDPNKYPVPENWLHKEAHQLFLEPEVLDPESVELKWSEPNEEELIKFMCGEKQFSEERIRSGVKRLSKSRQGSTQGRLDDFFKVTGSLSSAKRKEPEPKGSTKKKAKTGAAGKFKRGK", "assay": "FEN1 activity", "type": "biochemical"}}, "data": [{"smiles": "C[C@@H]1C/C=C/C=C/C=C/C=C/[C@H](O[C@@H]2O[C@H](C)[C@@H](O)[C@H](N)[C@@H]2O)C[C@@H]2O[C@](O)(C[C@@H](O)C[C@H]3O[C@@H]3/C=C/C(=O)O1)C[C@H](O)[C@H]2C(=O)O", "note": "[natamycin]", "values": [{"measurement": "BER capacity and production of the BER repair product", "setting": "[1]", "result": "significantly reduced BER capacity"}, {"measurement": "toxicity (cell viability) in LNCaP", "setting": "LNCaP cells [2]", "result": "highest toxicity"}, {"measurement": "toxicity (cell viability) in LAPC4", "setting": "LAPC4 cells", "result": "highest toxicity"}, {"measurement": "concentration reducing viability of LNCaP cells", "setting": "LNCaP cells [3]; CSS medium", "result": "≥ 0.1", "unit": "µM"}, {"measurement": "concentration required to reduce LNCaP viability", "setting": "LNCaP cells [3]; medium supplemented with FBS", "result": "≥ 2.5", "unit": "µM"}, {"measurement": "reduction of the activity of LIG I", "setting": "LIG I; 0.5 μM natamycin", "result": 3.5, "unit": "fold"}, {"measurement": "decrease of the activity of LIG I", "setting": "LIG I; 5 μM natamycin", "result": 14, "unit": "fold"}, {"measurement": "reduction of the activity of LIG I", "setting": "LIG I; at 1 (unit not given) natamycin", "result": 3.5, "unit": "fold"}, {"measurement": "pol β 1 nt gap-filling synthesis", "setting": "pol β; FIG. 8B, lanes 5-7", "result": "did not inhibit"}, {"measurement": "pol β strand-displacement synthesis", "setting": "pol β; at 2 nM-5 nM", "result": "significant inhibitory effect"}, {"measurement": "reduction of pol β activity", "setting": "pol β; at 10 (unit not given) natamycin, 5 nM pol β", "result": 3, "unit": "fold"}, {"measurement": "inhibitory effect on FEN1", "setting": "FEN1", "result": "No inhibitory effect"}]}]}
